Assay results: US20240415825A1, “COMPOUNDS FOR THE TREATMENT OF MALARIA” (FUNDACIÓ INSTITUT DE BIOENGINYERIA DE CATALUNYA, priority 2021, published 2024)
Entries after “also recorded” stand apart in the source; their conditions may differ. Where two headings read alike, the source gives them in different places.

Columns and labels:
P. falciparum K1 strain = assay: P. falciparum growth inhibition (K1 strain); format: cell-based; conditions: Plasmodium falciparum, read-out: IC50 in K1 strain (μM) ± SEM
[1] = test system: Plasmodium berghei CTRP-GFP; assay: Gametocyte to ookinete transition inhibition; format: cell-based; conditions: up to a concentration of 2 μM
Protocol: Eight days before ookinete production, 200 μL of Plasmodium berghei CTRP-GFP (which expresses GFP when reaching ookinete stage) (Vlachou, D. et al., 2004) in cryopreservation solution (RBC pellet:RPMI:30% glycerol in water, 1:1:2) was administered i.p. to a BALB/c mouse. Four days later this mouse was the donor to infect i.p. with 5×10^7 parasitized red blood cells in 200 μL of PBS three mice that one hour before the infection had been pretreated i.p. with phenylhydrazine (120 μL of a 10 mg/mL solution in PBS).
For ookinete production, up to 1 mL of blood carrying gametocytes was collected from each animal by intracardiac puncture and diluted in 30 mL of ookinete medium: 10.4 g/L of RPMI supplemented with […], 0.05% w/v hypoxanthine, 0.02% w/v xanthurenic acid, 50 U/mL penicillin and 50 μg/mL streptomycin (Invitrogen), 20% heat-inactivated fetal bovine serum (FBS, Invitrogen), 25 mM HEPES, pH 7.4.
24 h later, samples were diluted 1:100 in PBS and analyzed in a LSRFortessa™ flow cytometer (BD Biosciences) set up with the 5 lasers, 20 parameters standard configuration. The GFP positive cell population was selected and counted using 488 nm laser excitation and a 525/40 nm emission collection filter. BD FACSDiva software (BD biosciences) was used in data collection, and Flowing Software 2.5.1 (Turku Centre for Biotechnology) was used for analysis.

[2] = test system: P. falciparum NF54-gexp02-Tom strain gametocytes; assay: microbe, parasite or virus in culture; format: cell-based; conditions: Plasmodium falciparum, NF54, 48 h, read-out: IC50 on early gametocytes
Protocol: Cultures of the P. falciparum NF54-gexp02-Tom strain (developed and authenticated by Portugaliza, H. P. et al., 2019 and kindly provided by Prof. Alfred Cortes), were maintained in standard conditions in RPMI medium supplemented with 0.5% Albumax II and 2 mM choline, synchronized in ring stages with sorbitol lysis, and diluted to 2% parasitemia. To trigger sexual conversion, choline was removed from the medium and cultures were maintained in the same conditions for 48 h after synchronization (cycle 0). In the next cycle (cycle 1), parasites were treated with 50 mM N-acetylglucosamine (GlcNac) in order to kill asexual parasites, and maintained in RPMI supplemented with 10% human serum. Medium was refreshed daily and GlcNac was kept during 4 days.
Controls of untreated parasites as well as of parasites treated with a lethal dose of chloroquine were prepared. Gametocytemia was monitored daily by light microscopy until the majority of parasites (˜90%) could be identified as stage V gametocytes. At that point, Giemsa smears of each well were prepared and mature gametocytes were manually counted (10,000 cells were counted for each replica by two investigators blinded to group assignment). […] Afterwards, the culture was treated for 48 h with the drugs and the gametocytemia determined as above.

[3] = In vivo toxicity assay in mice; parameters: species or system BALB/c mice; conditions: male mice
Protocol: BALB/c female and male mice (Janvier Laboratories) were maintained with unlimited access to food and water under standard environmental conditions (20-24° C. and 12/12 h light/dark cycle). […] First, the lowest dose was intravenously injected to one female and one male mice. An oxygen stream of 4% isoflurane was used to anesthetize the mice, which were then maintained during the whole procedure (less than 3 minutes) with 2.5% isoflurane.
After the administration, mice were observed and different parameters related to their behavior (lethargy, motility alterations, seizures, coma, automutilation, aggressiveness, vocalizations, stereotyped movements) and physical conditions (pain, respiratory disturbances, tachycardia or bradycardia, dehydration, hair loss, body weight loss, dermatitis, bad hygiene, pruritus, tearing) were followed. If after 48 h no deleterious effects were observed, the following dose was administered to two other male and female mice.

P. falciparum 3D7 strain = assay: P. falciparum growth inhibition assay (3D7 strain); format: cell-based, Plasmodium falciparum; conditions: for IC50: Plasmodium falciparum
Protocol: After the synchronization process, a new culture at 1.5% parasitemia and 2% hematocrit was established and 150 μL aliquots of it were transferred to 96-well plates.
The required amounts of peptides, antimalarial compounds and dyes were added in each well at different concentrations and in triplicates. A positive growth control of untreated parasites and a negative growth control of parasites treated with a lethal dose of chloroquine (1 μM) were also included.
Parasites were grown for 48 h, a complete replication cycle, in standard culturing conditions (5% O2, 5% CO2, and 90% N2 at 37° C.). After the incubation period, 3 μL of culture from each well were mixed with 197 μL of PBS containing 0.1 μM Syto 11 (Thermo Fisher Scientific Inc), to obtain a final concentration of ca. 1-10×10^6 cells/ml.
Parasitemia was assessed by flow cytometry using a LSRFortessa flow cytometer (BD Biosciences, San Jose, CA, USA) set up with the 4 lasers, 20 parameters standard configuration. The single-cell population was selected on a forward-side scatter scattergram.
Growth inhibition was calculated taking as reference values both the growth rate of the untreated culture and the growth rate of the culture treated with chloroquine.

[4] = test system: human umbilical vein endothelial cell cultures; assay: Cytotoxicity (CC50) and in vitro therapeutic index; format: cell-based; conditions: 50% cytotoxic concentration (CC50)/IC50 in 3D7 strain
[5] = 3D7 strain, Example 8, read-out: IC50 in 3D7 strain

Row | IC50 (P. falciparum 3D7 strain; [5]) [µM] | SMILES | antimalarial / antiplasmodial activity in vitro (P. falciparum 3D7 strain; 3D7 strain) | further results
1 | 0.05 | CCN(CC)c1ccc(/C=C/c2cc[n+](CCCCCCCCC[n+]3ccc(/C=C/c4ccc(N(CC)CC)cc4)c(C)c3)cc2C)cc1.[Br-].[Br-] [PRC-25, 1,1′-(nonane-1,9-diyl)bis{4-[(E)-4-(diethylamino)styryl]-3-methylpyridin-1-ium} dibromide] | potent antimalarial activity | IC50 (P. falciparum 3D7 strain; 3D7 strain, read-out: IC50 in P. falciparum in vitro cultures): 0.047 µM
2 | 0.25 | CCN(CC)c1ccc(/C=C/c2cc[n+](CCOCCOCCOCC[n+]3ccc(/C=C/c4ccc(N(CC)CC)cc4)c(C)c3)cc2C)cc1 [PRC-28, 1,1′-(3,6,9-trioxaundecane-1,11-diyl)bis{4-[(E)-4-(diethylamino)styryl]-3-methylpyridin-1-ium} dichloride] | – | –
3 | 0.46 | CCN(CC)c1ccc(/C=C/c2cc[n+](Cc3ccc(C[n+]4ccc(/C=C/c5ccc(N(CC)CC)cc5)c(C)c4)cc3)cc2C)cc1 [PRC-29, 1,1′-[1,4-phenylenebis(methylene)]bis{4-[(E)-4-(diethylamino)styryl]-3-methylpyridin-1-ium} dibromide] | – | –
4 | 0.54 | CCN(CC)c1ccc(/C=C/c2cc[n+](Cc3cccc(C[n+]4ccc(/C=C/c5ccc(N(CC)CC)cc5)c(C)c4)c3)cc2C)cc1 [PRC-31, 1,1′-[1,3-phenylenebis(methylene)]bis{4-[(E)-4-(diethylamino)styryl]-3-methylpyridin-1-ium} dibromide] | – | –
5 | 0.15 | CCN(CC)c1ccc(/C=C/c2cc[n+](CCCCCCCCCC[n+]3ccc(/C=C/c4ccc(N(CC)CC)cc4)cc3)cc2)cc1.[Br-].[Br-] [PRC-39, 1,1′-(decane-1,10-diyl)bis{4-[(E)-4-(diethylamino)styryl]pyridin-1-ium} dibromide] | potent antimalarial activity | –
6 | 0.1 | CCN(CC)c1ccc(/C=C/c2cc[n+](CCCCCCCCCC[n+]3ccc(/C=C/c4ccc(N(CC)CC)cc4)c(Br)c3)cc2Br)cc1.[Br-].[Br-] [PRC-42, 1,1′-(decane-1,10-diyl)bis{3-bromo-4-[(E)-4-(diethylamino)styryl]pyridin-1-ium} dibromide] | potent antimalarial activity | –
7 | 0.1 | CCN(CC)c1ccc(/C=C/c2cc[n+](CCCCCCCCCC[n+]3ccc(/C=C/c4ccc(N(CC)CC)cc4)c(Cl)c3)cc2Cl)cc1.[Br-].[Br-] [PRC-50, 1,1′-(decane-1,10-diyl)bis{3-chloro-4-[(E)-4-(diethylamino)styryl]pyridin-1-ium} dibromide] | potent antimalarial activity | –

Further lines, the compound ahead of its results:

Row | SMILES | IC50 (P. falciparum 3D7 strain; [5]) [µM] | antimalarial / antiplasmodial activity in vitro (P. falciparum 3D7 strain; 3D7 strain) | further results
8 | COc1cc2c(cc1OC)C(=O)C(CC1CCN(CNc3c4c(nc5cc(Cl)ccc35)CCCC4)CC1)C2 (centres unmarked) [DONE3TCI] | – | – | IC50 (P. falciparum K1 strain): 0.36 ± 0.07 µM; effect on ookinete development [1]: did not have an observable effect; also recorded: does not show any observable effect; IC50 [2]: 285 ± 56 nM; dose at which toxicity starts being observed [3]: 3 mg/kg
9 | O=C(NCNc1c2c(nc3cc(Cl)ccc13)CCCC2)c1ccc2nc(-c3ccc(Cl)cc3)c3c(c2c1)NCCC3 [DP128, reference compound] | – | – | IC50 (P. falciparum 3D7 strain; 3D7, 48 h, read-out: IC50 in 3D7 strain (μM) ± SEM): 0.65 ± 0.14 µM; Therapeutic index in vitro [4]: 75.4
10 | Cc1ccc2c(c1)sc(-c1ccc(N(C)C)cc1)[n+]2C.[Cl-] [ThT, Thioflavin T, reference compound] | – | did not exhibit significant antiplasmodial activity | IC50 (P. falciparum 3D7 strain; 3D7 strain, 48 h, Table 2, read-out: IC50 in 3D7 strain (μM) ± SEM): 1.57 ± 0.23 µM
